Experimental data: US12655116B2, “Substituted isophthalic acid diamides” (Bayer Aktiengesellschaft, priority 2020, dated 2026)

Assays:
[1] = tested on: ABUTH; assay: Pre-emergence herbicidal action against ABUTH; format: in vivo, Abutilon theophrasti
How it was run: (§1)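 Greenhouse pots of sandy loam held seeds covered with soil, onto which the compound was applied before emergence. An aqueous suspension or emulsion of WP or EC was used at 600 to 800 l/ha with 0.2% wetting agent. Percent damage was judged visually at 3 weeks.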

[2] = tested on: ALOMY; assay: Pre-emergence herbicidal action against ALOMY; format: in vivo, Alopecurus myosuroides; settings: pre-emergence
How it was run: as §1

[3] = tested on: AMARE; assay: Pre-emergence herbicidal action against AMARE; format: in vivo, Amaranthus retroflexus
How it was run: as §1

[4] = tested on: AVEFA; assay: Pre-emergence herbicidal action against AVEFA; format: in vivo, Avena fatua; settings: 80 g/ha, pre-emergence
How it was run: as §1

[5] = tested on: ECHCG; assay: Pre-emergence herbicidal action against ECHCG; format: in vivo, Echinochloa crus-galli; settings: 80 g/ha
How it was run: as §1

[6] = tested on: MATIN; assay: Pre-emergence herbicidal action against MATIN; format: in vivo, Matricaria inodora
How it was run: as §1

[7] = tested on: PHBPU; assay: Pre-emergence herbicidal action against PHBPU; format: in vivo, Pharbitis purpurea; settings: dosage 80 g/ha
How it was run: as §1

[8] = tested on: POLCO; assay: Pre-emergence herbicidal action against POLCO; format: in vivo, Polygonum convolvulus; settings: dosage 80 g/ha
How it was run: as §1

[9] = tested on: SETVI; assay: Pre-emergence herbicidal action against SETVI; format: in vivo, Setaria viridis
How it was run: as §1

[10] = tested on: VIOTR; assay: Pre-emergence herbicidal action against VIOTR; format: in vivo, Viola tricolor
How it was run: as §1

[11] = tested on: DIGSA; assay: Pre-emergence herbicidal action against DIGSA; format: in vivo, Digitaria sanguinalis; settings: Digitaria sanguinalis, 504 h
How it was run: as §1

[12] = tested on: ABUTH; assay: Post-emergence herbicidal action against ABUTH; format: in vivo, Abutilon theophrasti; settings: visual assessment about 3 weeks after treatment vs untreated controls
How it was run: (§2)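 A WP or EC formulation diluted in water with 0.2% wetting agent was sprayed at 600 to 800 l/ha onto one-leaf-stage plants grown in sandy loam. About 3 weeks later, action was rated visually in percent, 100% being dead plants.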

[13] = tested on: ALOMY; assay: Post-emergence herbicidal action against ALOMY; format: in vivo, Alopecurus myosuroides; settings: dosage 20 g/ha, visual assessment about 3 weeks after treatment vs untreated controls
How it was run: as §2

[14] = tested on: AMARE; assay: Post-emergence herbicidal action against AMARE; format: in vivo, Amaranthus retroflexus; settings: 20 g/ha, visual assessment about 3 weeks after treatment, 100% = plants have died, 0% = like control plants
How it was run: as §2

[15] = tested on: AVEFA; assay: Post-emergence herbicidal action against AVEFA; format: in vivo, Avena fatua; settings: 20 g/ha, visual assessment about 3 weeks after treatment, 100% = plants have died, 0% = like control plants
How it was run: as §2

[16] = tested on: ECHCG; assay: Post-emergence herbicidal action against ECHCG; format: in vivo, Echinochloa crus-galli
How it was run: as §2

[17] = tested on: MATIN; assay: Post-emergence herbicidal action against MATIN; format: in vivo, Matricaria inodora
How it was run: as §2

[18] = tested on: PHBPU; assay: Post-emergence herbicidal action against PHBPU; format: in vivo, Pharbitis purpurea
How it was run: as §2

[19] = tested on: SETVI; assay: Post-emergence herbicidal action against SETVI; format: in vivo, Setaria viridis
How it was run: as §2

[20] = tested on: VIOTR; assay: Post-emergence herbicidal action against VIOTR; format: in vivo, Viola tricolor
How it was run: as §2

[21] = tested on: DIGSA; assay: Post-emergence herbicidal action against DIGSA; format: in vivo, Digitaria sanguinalis
How it was run: as §2

[22] = tested on: VERPE; assay: Pre-emergence herbicidal action against VERPE; format: in vivo, Veronica persica; settings: dosage 80 g/ha
How it was run: as §1

[23] = Tripleurospermum inodorum, 504 h, dosage 20 g/ha
[24] = Setaria viridis, 504 h, dosage 20 g/ha
[25] = 80 g/ha, scored visually after 3 weeks vs untreated controls (100% = plants have died, 0% = like control plants)

Structure (SMILES): CCn1nnnc1NC(=O)c1ccc(C(F)(F)F)c(C(=O)NC2CC2)c1OC [Example 2-58]
- pest or weed control at 80 g/ha ([1]; Abutilon theophrasti, 504 h, 80 g/ha, scored visually after 3 weeks vs untreated controls (100% = plants have died, 0% = like control plants)): 100%
- pest or weed control at 20 g/ha ([1]; Abutilon theophrasti, 504 h, dosage 20 g/ha, scored visually after 3 weeks vs untreated controls, 100% = plants have died, 0% = like control plants, read-out: Pre-emergence action against ABUTH (herbicidal activity in percent)): 100%
- pest or weed control at 80 g/ha ([2]; Alopecurus myosuroides, 504 h, 80 g/ha, scored visually after 3 weeks vs untreated controls (100% = plants have died, 0% = like control plants)): 100%
- pest or weed control at 20 g/ha ([2]; Alopecurus myosuroides, 504 h, 20 g/ha, scored visually after 3 weeks, 100% = plants have died, 0% = like control plants): 90%
- pest or weed control at 20 g/ha ([3]; Amaranthus retroflexus, 504 h, 20 g/ha, scored visually after 3 weeks vs untreated controls, 100% = plants have died, 0% = like control plants): 100%
- pest or weed control at 80 g/ha ([3]; Amaranthus retroflexus, 504 h, 80 g/ha, scored visually after 3 weeks vs untreated controls, 100% = plants have died, 0% = like control plants): 100%
- pest or weed control at 80 g/ha ([4]; Avena fatua, 504 h): 90%
- pest or weed control at 80 g/ha ([5]; Echinochloa crus-galli, 504 h): 100%
- pest or weed control at 20 g/ha [6, 23]: 100%
- pest or weed control at 80 g/ha ([6]; Tripleurospermum inodorum, 504 h, dosage 80 g/ha): 100%
- pest or weed control at 80 g/ha ([7]; Ipomoea purpurea, 504 h): 90%
- pest or weed control at 80 g/ha ([8]; Fallopia convolvulus, 504 h): 80%
- pest or weed control at 20 g/ha [9, 24]: 100%
- pest or weed control at 80 g/ha ([9]; Setaria viridis, 504 h, dosage 80 g/ha): 100%
- pest or weed control at 20 g/ha ([10]; Viola tricolor, 504 h, dosage 20 g/ha): 100%
- pest or weed control at 80 g/ha ([10]; Viola tricolor, 504 h, dosage 80 g/ha): 100%
- pest or weed control at 20 g/ha ([11]; dosage 20 g/ha): 100%
- pest or weed control at 80 g/ha ([11]; dosage 80 g/ha): 100%
- pest or weed control at 5 g/ha ([12]; Abutilon theophrasti, 504 h, dosage 5 g/ha): 100%
- pest or weed control at 20 g/ha ([12]; Abutilon theophrasti, 504 h, dosage 20 g/ha): 100%
- pest or weed control at 20 g/ha ([13]; Alopecurus myosuroides, 504 h): 80%
- pest or weed control at 20 g/ha ([14]; Amaranthus retroflexus, 504 h): 100%
- pest or weed control at 20 g/ha ([15]; Avena fatua, 504 h): 80%
- pest or weed control at 5 g/ha ([16]; Echinochloa crus-galli, 504 h, dosage 5 g/ha): 90%
- pest or weed control at 20 g/ha ([16]; Echinochloa crus-galli, 504 h, dosage 20 g/ha): 100%
- pest or weed control at 5 g/ha ([17]; Tripleurospermum inodorum, 504 h, dosage 5 g/ha): 80%
- pest or weed control at 20 g/ha [17, 23]: 90%
- pest or weed control at 20 g/ha ([18]; Ipomoea purpurea, 504 h, dosage 20 g/ha): 90%
- pest or weed control at 5 g/ha ([19]; Setaria viridis, 504 h, dosage 5 g/ha): 90%
- pest or weed control at 20 g/ha [19, 24]: 100%
- pest or weed control at 5 g/ha ([20]; Viola tricolor, 504 h, 5 g/ha): 100%
- pest or weed control at 20 g/ha ([20]; Viola tricolor, 504 h, 20 g/ha): 100%
- pest or weed control at 5 g/ha ([21]; Digitaria sanguinalis, 504 h, 5 g/ha): 100%
- pest or weed control at 20 g/ha ([21]; Digitaria sanguinalis, 504 h, 20 g/ha): 100%

Structure (SMILES): CCNC(=O)c1c(C(F)(F)F)ccc(C(=O)Nc2nnnn2CC)c1CC [Example 2-272]
- Pre-emergence action against ABUTH (herbicidal activity) [1, 25]: 100%
- Pre-emergence action against ABUTH (herbicidal activity in percent) ([1]; dosage 20 g/ha, scored visually after 3 weeks vs untreated controls, 100% = plants have died, 0% = like control plants): 100%
- Pre-emergence action against ALOMY (herbicidal activity) [2, 25]: 90%
- Pre-emergence action against AMARE in % ([3]; 20 g/ha, scored visually after 3 weeks vs untreated controls, 100% = plants have died, 0% = like control plants): 100%
- Pre-emergence action against AMARE in % [3, 25]: 100%
- Pre-emergence action against AVEFA in % [4]: 80%
- Pre-emergence action against ECHCG in % [5]: 100%
- Pre-emergence action against MATIN in % ([6]; dosage 20 g/ha): 100%
- Pre-emergence action against MATIN in % ([6]; dosage 80 g/ha): 100%
- Pre-emergence action against PHBPU in % [7]: 80%
- Pre-emergence action against POLCO in % [8]: 80%
- Pre-emergence action against SETVI in % ([9]; dosage 80 g/ha): 100%
- Pre-emergence action against VERPE in % [22]: 90%
- Pre-emergence action against VIOTR in % ([10]; dosage 20 g/ha): 90%
- Pre-emergence action against VIOTR in % ([10]; dosage 80 g/ha): 100%
- Post-emergence action against ABUTH in % ([12]; dosage 5 g/ha): 90%
- Post-emergence action against ABUTH in % ([12]; dosage 20 g/ha): 90%
- Post-emergence action against ALOMY in % [13]: 90%
- Post-emergence action at 20 g/ha against AMARE in % [14]: 100%
- Post-emergence action at 20 g/ha against AVEFA in % [15]: 80%
- Post-emergence action against ECHCG in % ([16]; dosage 5 g/ha): 80%
- Post-emergence action against ECHCG in % ([16]; dosage 20 g/ha): 90%
- Post-emergence action against MATIN in % ([17]; dosage 5 g/ha): 80%
- Post-emergence action against MATIN in % ([17]; dosage 20 g/ha): 80%
- Post-emergence action against PHBPU in % ([18]; dosage 5 g/ha): 90%
- Post-emergence action against PHBPU in % ([18]; dosage 20 g/ha): 100%
- Post-emergence action against SETVI in % ([19]; dosage 5 g/ha): 90%
- Post-emergence action against SETVI in % ([19]; dosage 20 g/ha): 100%
- Post-emergence action against VIOTR in % ([20]; 20 g/ha): 80%
- Post-emergence action against DIGSA in % ([21]; 5 g/ha): 90%
- Post-emergence action against DIGSA ([21]; 20 g/ha): 90%
